Laboratory results as given in patent US20250332265A1, “PSMA TARGETED CONJUGATE COMPOUNDS AND USES THEREOF” (priority 2021, published 2025).

Tests used:
[1] = tested on: PC3pip tumors; assay: Immunofluorescent detection of apoptosis (caspase-3, H&E); type: in vivo, mice; details: single dose, four days after the treatment
Text: Animals bearing PC3pip tumors were divided into 7 groups: (1) mice receiving PBS; (2) mice receiving 100 nmol/kg PSMA-1-MMAE-IR700 with PDT; (3) mice receiving equal doses of PSMA-1-MMAE-IR700 to group 2, but not receiving PDT; (4) Mice receiving equal doses of PSMA-1-IR700 to group 2 with PDT treatment; (5) Mice receiving equal doses of PSMA-1-IR700 to group 2 without PDT; (6) mice receiving equal dose of PSMA-1-IR700 to group 2+free MMAE with PDT (MMAE normalized to that delivered by PSMA-1-MMAE-IR700); and (7) mice receiving equal dose of PSMA-1-IR700 to group 2+free MMAE without PDT. Animals were treated with one single dose and were sacrificed at 4-day post treatment. Tumors were snap-frozen in OCT, cut into 10 μm thick sections and fixed on slides. Induction of apoptosis by the treatment was determined by rabbit polyclonal anti-Caspase-3 antibody (Abcam, Cambridge, UK). A goat anti-rabbit polyclonal antibody labeled by Alexa Fluor-594 was used as secondary antibody (Abcam, Cambridge, UK). The presence of apoptosis was determined by fluorescence images under Leica DM4000B fluorescence microscope at 10×. H&E staining of tumor tissues was performed in adjacent sections to check the histology of the tumors. Experiments were repeated in 5 mice.

[2] = tested on: PSMA-negative PC3flu cells; assay: In vitro cytotoxicity studies (CellTiter 96) with or without 690 nm light, PC3flu; type: cell-based, human
Description: PC3pip and PC3flu cells were plated at 3,000 cells/well in 96-well plates. Twenty-four hours later, drugs (PSMA-1-MMAE-IR700 or PSMA-1-IR700) of different concentrations were added. After incubation at 37° C. in the dark for 24 h, cell viability was determined by CellTiter 96© aqueous one solution cell proliferation assay using absorbance at 490 nm (Promega Biotech, Madison, […]). The concentration required to inhibit 50% of cell growth (IC50) was determined by GraphPad Prism 3.0. To test the cytotoxicity of PSMA-1-MMAE-TR700 with light irradiation, drugs at a final concentration of 5 nM were added to cells and incubated in the dark for 24 h. Cells were then washed 3 times with RMPI 1640 and then irradiated with 690 nm light (L690-66-60, Marubeni America Co, New York, NY). Cells were incubated in the dark for another 24 h. Cell viability was then determined by CellTiter 96© aqueous one solution cell proliferation assay (Promega Biotech, Madison, […]). The coefficient drug interaction (CDI) was calculated as follows: CDI=AB/(A×B), where AB is the ratio of the absorbance of combination treatment groups (PSMA-1-MMAE-IR700 with light irradiation) to the absorbance of control groups; A or B is the absorbance of single treatment group (PSMA-1-MMAE-IR700 without light or PSMA-1-IR700 with light irradiation) to the absorbance of control groups. […]

[3] = tested on: PC3pip and PC3flu tumors; assay: In vivo fluorescence imaging studies, heterotopic tumors; design: species or system mice
Description: Animal experiments were approved by the animal care and use committee at Case Western Reserve University (IACUC #150033). Six to eight-week-old male Balb/c athymic nude mice (Jackson Laboratory, Bar Harbor, ME) were implanted subcutaneously with 1×10^6 of PC3pip (right flank) and PC3flu (left flank) cells in 100 μl of matrigel. Animals were ready to use when tumor diameter reached 10 mm, about two weeks. Animals received 100 nmol/kg of PSMA-1-MMAE-IR700 through tail vein injection and were imaged at different time points by Maestro In vivo Image System (Perkin Elmer, Waltham, MI) using the yellow filter set (excitation 575-605 nm, emission 645 nm longpass). During imaging, mice were anesthetized by isoflurane. At 48 h post injection, mice were sacrificed and tissues such as heart, lung, liver, kidneys, stomach, tumors were harvested for ex vivo imaging. Multispectral images were unmixed into their component spectra and average fluorescence signals were quantified by creating regions of interest. Experiments were performed in 5 mice.

[4] = Stability in mouse plasma; type: in vitro ADME
Text: (§1) To synthesize PSMA-1-MMAE-IR700 (FIG. 6A), we used a self-immolative cathespsin cleavable Vc linker to conjugate MMAE to PSMA-1-Cys-C6-Lys. IR700 was conjugated to the PSMA-1 ligand through reaction of the Lys amine (—NH2) with NHS ester as no IR700 release is required for light activation. […] Degradation of PSMA-1-MMAE-IR700 led to release of free MMAE.

[5] = Stability in PBS, Example 2; type: physicochemical; details: incubated at 37° C.
Text: as §1

[6] = tested on: PSMA-positive PC3pip cells; assay: In vitro cytotoxicity studies (CellTiter 96) with or without 690 nm light, PC3pip; type: cell-based, human; details: for ratio of absorbance to control groups (cell viability): 5 nM, 24 h
Description: (§2) PC3pip and PC3flu cells were plated at 3,000 cells/well in 96-well plates. Twenty-four hours later, drugs (PSMA-1-MMAE-IR700 or PSMA-1-IR700) of different concentrations were added. After incubation at 37° C. in the dark for 24 h, cell viability was determined by CellTiter 96© aqueous one solution cell proliferation assay using absorbance at 490 nm (Promega Biotech, Madison, […]). The concentration required to inhibit 50% of cell growth (IC50) was determined by GraphPad Prism 3.0. To test the cytotoxicity of PSMA-1-MMAE-TR700 with light irradiation, drugs at a final concentration of 5 nM were added to cells and incubated in the dark for 24 h. Cells were then washed 3 times with RMPI 1640 and then irradiated with 690 nm light (L690-66-60, Marubeni America Co, New York, NY). Cells were incubated in the dark for another 24 h. Cell viability was then determined by CellTiter 96© aqueous one solution cell proliferation assay (Promega Biotech, Madison, […]). The coefficient drug interaction (CDI) was calculated as follows: CDI=AB/(A×B), where AB is the ratio of the absorbance of combination treatment groups (PSMA-1-MMAE-IR700 with light irradiation) to the absorbance of control groups; A or B is the absorbance of single treatment group (PSMA-1-MMAE-IR700 without light or PSMA-1-IR700 with light irradiation) to the absorbance of control groups. CDI <1, =1 and >1 indicates synergistic, additive or antagonistic effect.

[7] = as above; type: cell-based, human; details: 24 h in the dark, no light; read-out: IC50 dark cytotoxicity, PC3pip cells
Description: as §2

[8] = tested on: PSMA-positive PC3pip cells; assay: In vitro uptake studies, Example 2, PC3pip; type: cell-based, human; details: 50 nM
Description: Enzymatic cleavage study of PSMA-1-MMAE-IR700 was performed as previously described. PSMA-1-MMAE-IR700 was incubated with activated human liver cathespin (Anthens Research and Technology, Anthens, GA) at 37° C. At different incubation time, 40 μL of the solution was placed into tubes loaded with 1 μL of 1 mM E64 protease inhibitor. The mixture was vortexed and then stored at −80° C. for future HPLC analysis. Studies were performed in triplicate. In vitro cellular uptake studies cells were plated on coverslips at about 60-70% confluency. Twenty-four hours later, cells were incubated with 50 nM of PSMA-1-MMAE-IR700. After incubation for various times (15 min, 30 min, 1 h and 4 h), cells were washed twice with cold RPMI 1640, fixed with 4% paraformaldehyde and counterstained with 4′,6-diamidino-2-phenylindole (DAPI). Images were taken using a Leica DM4000B fluorescence microscope (Leica Biosystems, Buffalo Gove, IL) at 40×. Blocking experiments were performed by co-incubation of cells with 50 nM of PSMA-1-MMAE-IR700 and 100× of PSMA-1 ligand. Studies were performed in triplicate.

[9] = 4 h post injection, 100 nmol/kg
[10] = 48 h post injection, 100 nmol/kg

CC[C@H](C)[C@@H]([C@@H](CC(=O)N1CCC[C@H]1[C@H](OC)[C@@H](C)C(=O)N[C@H](C)[C@@H](O)c1ccccc1)OC)N(C)C(=O)[C@@H](NC(=O)[C@H](C(C)C)N(C)C(=O)OCc1ccc(NC(=O)[C@H](CCCNC(N)=O)NC(=O)[C@@H](NC(=O)CCCCCN2C(=O)CC(SC[C@H](NC(=O)[C@H](CCC(=O)O)NC(=O)[C@H](CCC(=O)O)NC(=O)[C@H](CCC(=O)O)NC(=O)CCCCCNC(=O)[C@H]3CC[C@H](CNC(=O)CC[C@H](NC(=O)N[C@@H](CCC(=O)O)C(=O)O)C(=O)O)CC3)C(=O)NCCCCCC(=O)N[C@@H](CCCCNC(=O)CCCCCNC(=O)OCCCOc3cccc4c5n6c(c34)=NC3=NC(=Nc4c7ccccc7c(n4[Si]6(O[Si](C)(C)CCC[N+](CCCS(=O)(=O)[O-])(CCCS(=O)(=O)O)CCCS(=O)(=O)O)O[Si](C)(C)CCC[N+](CCCS(=O)(=O)[O-])(CCCS(=O)(=O)O)CCCS(=O)(=O)O)N=C4N=C(N=5)c5ccccc54)c4ccccc43)C(N)=O)C2=O)C(C)C)cc1)C(C)C (stereo partly shown) [PSMA-1-MMAE-IR700]
apoptosis / necrotic damage in tumors, with PDT [1]: most aggressive necrotic damage and apoptosis | cell killing in PC3flu cells ([2]; 5 nM, with or without light): no effective cell killing | IC50 dark cytotoxicity, PC3flu cells ([2]; 24 h in the dark, no light): no IC50 value was obtained | time to reach peak uptake in PC3pip tumors ([3]; 100 nmol/kg i.v.): 1 h | fluorescence signal PC3pip versus PC3flu tumor ([3]; 4 h post injection): 3.8 fold | fluorescence signal in PC3flu tumor [3, 9]: 5.2±1.5 counts | fluorescence signal in PC3pip tumor [3, 9]: 19.6±4.4 counts | fluorescence signal PC3pip versus PC3flu tumor ([3]; 48 h post injection): 2.9 fold | fluorescence signal in PC3flu tumors [3, 10]: 3.3±1.3 counts | fluorescence signal in PC3pip tumors [3, 10]: 9.6±2.1 counts | fluorescent signal in PC3pip tumor versus kidneys, liver and other organs ([3]; ex vivo, 48 h post injection): more than 3 fold | half-life [4]: 17.2 ± 2.8 h | stability in PBS [5]: stable | ratio of absorbance to control groups (cell viability) ([6]; 690 nm light 1 J/cm2): 0.423 | ratio of absorbance to control groups (cell viability) ([6]; 690 nm light 3 J/cm2): 0.208 | ratio of absorbance to control groups (cell viability) ([6]; without light): 0.892 | coefficient drug interaction (CDI) ([6]; 1 J/cm2 light irradiation): 0.609 | coefficient drug interaction (CDI) ([6]; 3 J/cm2 light irradiation): 0.550 | selectivity of killing PC3pip versus PC3flu cells ([6]; 72 h in the dark): 50 fold | IC50 [7]: 8.42 ± 1.03 nM | fluorescence signal (uptake) in PC3pip cells [8]: observed as early as 15 min | fluorescence signal in PC3pip cells with 100× of PSMA-1 ligand ([8]; co-incubation): completely blocked
